The subject of data set [1] is HIV-1. Description: Anti-HIV-1 activity, National Cancer Institute protocol (Weislow et al.). The class given is cell-based. Conditions: for EC50: Human immunodeficiency virus 1, read-out: ECSO; for TLSO: ratio IC50/EC50, NCI protocol. The method, then: (§1) The sultams of the invention were tested in accordance with the National Cancer Institute Protocol, Weislow, O. W., et al. (1989) J. Natl. Cancer Inst. 81:577-586, which is incorporated herein by reference. The protocol is also described in U.S. Pat. No. 5,843,990.
The anti-HIV activity of compounds of the invention illustrated by the formula V shown above, is reported below.
Table III illustrates anti-HIV-1 activities of compounds of the invention, the substituents (shown in formula V).

Data set [2] in a line: IC50 in the National Cancer Institute anti-HIV protocol (Weislow et al.), used with EC50 for the TI50. Type of data set: cell-based. Conditions: NCI protocol; read-out: ICSO. On the procedure:
as §1

Regarding `Cc1cccc(C2c3ccccc3S(=O)(=O)N2C)c1` (single isomer, unassigned; (+)) [Compound 7, (+)-2-Methyl-3-(3-methylphenyl)-2,3-dihydrobenzo[d] isothiazole 1,1-Dioxide], the melting point (as a rule, the temperature, or range, at which the solid turns liquid) was 154 °C. For the same molecule, in data set [1], the EC50 was 37 nM and the TLSO is given as over 54. Further, the IC50 in data set [2] is over 2000 nM.
Molecule `CN1C(c2cccc(F)c2)c2ccccc2S1(=O)=O` (single isomer, unassigned; (+)) [Compound 13, (+)-3-(3-Fluorophenyl)-2-methyl-2,3-dihydrobenzo[d]isothiazole 1,1-Dioxide] gave a melting point of 147 °C. In data set [1], the EC50 came to 179 nM and the TLSO is listed as 538. Moreover, in data set [2], the IC50 worked out at 147000 nM.
On the same counts, the results for `Cc1ccccc1C1c2ccccc2S(=O)(=O)N1C` (single isomer, unassigned; (+)) [Compound 18, (+)-2-Methyl-3-(2-methylphenyl)-2,3-dihydrobenzo[d]isothiazole 1,1-Dioxide] are 152 °C, 4680 nM, 26.3 and 123000 nM.
Regarding `CN1[C@@H](c2ccccc2)c2ccccc2S1(=O)=O` [Compound 5, (+)-(S)-2-Methyl-3-phenyl-2,3-dihydrobenzo[d]isothiazole 1,1-Dioxide], the melting point fell in the range of 156 to 157 °C. In addition, in data set [1], the EC50 came out at 471 nM and the TLSO is over 674. Besides, the IC50 in data set [2] is over 316000 nM.
In turn, `CN1[C@@H](c2cccc(Br)c2)c2ccccc2S1(=O)=O` [Compound 9, (+)-(S)-3-(3-Bromophenyl)-2-methyl-2,3-dihydrobenzo[d]isothiazole 1,1-Dioxide] registered a melting point of 157 °C. Also, in data set [1], the EC50 came out at 74 nM and the TLSO is listed as 136.5. In data set [2], the IC50 was 101000 nM.
On the same counts, the results for `CN1[C@@H](c2cccc(Cl)c2)c2ccccc2S1(=O)=O` [Compound 11, (+)-(S)-3-(3-Chlorophenyl)-2-methyl-2,3-dihydrobenzo[d]isothiazole 1,1-Dioxide] are 164 °C, 86 nM, over 31 and over 2000 nM.
`CN1[C@@H](c2cccc(I)c2)c2ccccc2S1(=O)=O` [Compound 15, (+)-(S)-2-Methyl-3-(3-iodophenyl)-2,3-dihydrobenzo[d]isothiazole 1,1-Dioxide] gave a melting point of 156 °C. Also, in data set [1], the EC50 came out at 76 nM and the TLSO worked out at 817. Also, the IC50 in data set [2] was 62400 nM.
